Reference: US5371090A, “Naphthyridonecarboxylic acid derivatives” (Bayer Aktiengesellschaft, priority 1991, dated 1994)
Converted amounts (≈) assume the structure as drawn. Like-named read-outs stand apart in the source and are kept apart here.

Columns and labels:
Assay in all cases: MIC on Iso-Sensitest agar, serial dilution
Type in all cases: cell-based
Staphylococcus aureus = settings: 37° C., approx. 20 hours
Method: (§1) The minimum inhibitory concentrations (MICs) were determined on Iso-Sensitest agar (Oxoid) using serial dilution methods. For each test substance a series of agar plates was prepared which contained concentrations of the active substance which decreased as the dilution factor was doubled. The agar plates were inoculated by means of a multipoint inoculator (Denley). The inocula used were overnight cultures of the pathogens which had previously been diluted to such an extent that each inoculation point contained approx. 10^4 colony-forming units. The inoculated agar plates were incubated at 37° C., and the growth of the germs was read off after approx. 20 hours. The MIC value (μg/ml) indicates the lowest concentration of active compound at which no growth could be observed with the naked eye.

Pseudomonas aeruginosa = system: Pseudomonas aeruginosa
Method: as §1

E. coli = settings: Escherichia coli, 20 h, 37° C., approx. 20 hours
Method: as §1, with “hours.” for “hours. The MIC value (μg/ml) indicates the lowest concentration of active compound at which no growth could be observed with the naked eye.”

Enterococcus faecalis = system: Enterococcus faecalis
Method: as §1, with “hours.” for “hours. The MIC value (μg/ml) indicates the lowest concentration of active compound at which no growth could be observed with the naked eye.”

Providencia spp. = system: Providencia spp.
Method: as §1, with “hours.” for “hours. The MIC value (μg/ml) indicates the lowest concentration of active compound at which no growth could be observed with the naked eye.”

Klebsiella sp. = system: Klebsiella sp.
Method: as §1, with “hours.” for “hours. The MIC value (μg/ml) indicates the lowest concentration of active compound at which no growth could be observed with the naked eye.”

Morganella morg. = system: Morganella morg.
Method: as §1, with “hours.” for “hours. The MIC value (μg/ml) indicates the lowest concentration of active compound at which no growth could be observed with the naked eye.”

[1] = Staphylococcus aureus strain 133
[2] = Staphylococcus aureus strain 1756, read-out: MIC
[3] = Pseudomonas aeruginosa strain Walter, 37° C., approx. 20 hours, read-out: MIC
[4] = Enterococcus faecalis, 20 h, Enterococcus faecalis strain 9790, 37° C., approx. 20 hours, read-out: MIC
[5] = Staphylococcus aureus, 20 h, Staphylococcus aureus strain 133
[6] = Enterococcus faecalis, 20 h, Enterococcus faecalis strain 27101, 37° C., approx. 20 hours
[7] = Enterococcus faecalis, 20 h, Enterococcus faecalis strain 9790, 37° C., approx. 20 hours
[8] = Morganella morg. strain 932, 37° C., approx. 20 hours, read-out: MIC
[9] = Enterococcus faecalis, 20 h, Enterococcus faecalis strain 27101, 37° C., approx. 20 hours, read-out: MIC
[10] = Providencia spp. strain 12012, 37° C., approx. 20 hours, read-out: MIC
[11] = Klebsiella sp. strain 8085, 37° C., approx. 20 hours, read-out: MIC

`Cl.O=C(O)c1cn(C2CC2)c2c(F)c(N3Cc4cccnc4C3)c(F)cc2c1=O` [Example 1B, 1-cyclopropyl-7-(5,7-dihydro-6H-pyrrolo[3,4-b]pyridin-6-yl)-6,8-difluoro-1,4-dihydro-4-oxo-3-quinolinecarboxylic acid hydrochloride] gave an MIC (Staphylococcus aureus; [1]) of 0.02 µg/mL, an MIC (Staphylococcus aureus; [2]) of 0.02 µg/mL and an MIC (Pseudomonas aeruginosa; [3]) of 4 µg/mL. For the same compound, the MIC (E. coli; E. coli strain 455/7) was 8 µg/mL, the MIC (Enterococcus faecalis; Enterococcus faecalis strain 27101, 37° C., approx. 20 hours, read-out: MIC) was 0.01 µg/mL and the MIC (Enterococcus faecalis; [4]) was 0.06 µg/mL. The MIC (Providencia spp.; Providencia, 20 h) was 0.25 µg/mL and the MIC (Klebsiella sp.; Klebsiella, 20 h) was 0.25 µg/mL.
Work on `O=C(O)c1cn(C2CC2)c2c(F)c(N3Cc4ccncc4C3)c(F)cc2c1=O` [Example 2, 1-cyclopropyl-7-(2,3-dihydro-1H-pyrrolo[3,4-c]pyridin-2-yl)-6,8-difluoro-1,4-dihydro-4-oxo-3-quinolinecarboxylic acid] yielded an MIC (Staphylococcus aureus; [2]) of 0.06 µg/mL (≈ 0.157 µM), an MIC (Staphylococcus aureus; [5]) of 0.25 µg/mL (≈ 0.652 µM) and an MIC (Pseudomonas aeruginosa; Pseudomonas aeruginosa, 20 h) of 1 µg/mL (≈ 2.61 µM). For the same compound, the MIC (E. coli; E. coli strain 455/7) was 8 µg/mL (≈ 20.9 µM), the MIC (E. coli; E. coli strain Neumann) was 0.06 µg/mL (≈ 0.157 µM) and the MIC (Enterococcus faecalis; [6]) was 0.25 µg/mL (≈ 0.652 µM). The MIC (Providencia spp.; Providencia, 20 h) was 0.25 µg/mL (≈ 0.652 µM).
Compound `O=C(O)c1cn(C2CC2)c2nc(N3Cc4cccnc4C3)c(F)cc2c1=O` [Example 3] has an MIC (Staphylococcus aureus; [5]) of 0.25 µg/mL (≈ 0.682 µM), an MIC (Staphylococcus aureus; Staphylococcus aureus, 20 h, Staphylococcus aureus strain 1756) of 0.25 µg/mL (≈ 0.682 µM) and an MIC (Pseudomonas aeruginosa; Pseudomonas aeruginosa, 20 h) of 2 µg/mL (≈ 5.46 µM). It also gave an MIC (Morganella morg.; Morganella, 20 h) of 0.25 µg/mL (≈ 0.682 µM), an MIC (E. coli; E. coli strain 455/7) of 128 µg/mL (≈ 349 µM) and an MIC (Enterococcus faecalis; Enterococcus faecalis, 20 h) of 0.5 µg/mL (≈ 1.36 µM). The MIC (Enterococcus faecalis; [7]) was 0.5 µg/mL (≈ 1.36 µM), the MIC (Providencia spp.; Providencia, 20 h) was 0.5 µg/mL (≈ 1.36 µM) and the MIC (Klebsiella sp.; Klebsiella, 20 h) was 0.5 µg/mL (≈ 1.36 µM).
For `O=C(O)c1cn(C2CC2)c2cc(N3Cc4ccncc4C3)c(F)cc2c1=O` [Example 4, 1-cyclopropyl-7-(2,3-dihydro-1H-pyrrolo[3,4-c]pyridin-2-yl)-6-fluoro-1,4-dihydro-4-oxo-3-quinolinecarboxylic acid], the MIC (Staphylococcus aureus; [1]) was 0.06 µg/mL (≈ 0.164 µM), the MIC (Staphylococcus aureus; [2]) was 0.06 µg/mL (≈ 0.164 µM) and the MIC (Pseudomonas aeruginosa; [3]) was 4 µg/mL (≈ 10.9 µM). It also gave an MIC (Morganella morg.; [8]) of 0.5 µg/mL (≈ 1.37 µM), an MIC (E. coli; E. coli strain 455/7) of 128 µg/mL (≈ 350 µM) and an MIC (E. coli; E. coli strain Neumann) of 0.06 µg/mL (≈ 0.164 µM). For the same compound, the MIC (Enterococcus faecalis; [4]) was 0.25 µg/mL (≈ 0.684 µM), the MIC (Enterococcus faecalis; [9]) was 0.25 µg/mL (≈ 0.684 µM) and the MIC (Providencia spp.; [10]) was 0.5 µg/mL (≈ 1.37 µM). The MIC (Klebsiella sp.; [11]) was 0.25 µg/mL (≈ 0.684 µM).
Work on `O=C(O)c1cn(C2CC2)c2cc(N3Cc4cccnc4C3)c(F)cc2c1=O` [Example 5, 1-cyclopropyl-7-(5,7-dihydro-6H-pyrrolo[3,4-b]-pyridin-6-yl)-6-fluoro-1,4-dihydro-4-oxo-3-quinolinecarboxylic acid] yielded an MIC (Staphylococcus aureus; [1]) of 0.13 µg/mL (≈ 0.356 µM), an MIC (Staphylococcus aureus; [2]) of 0.13 µg/mL (≈ 0.356 µM) and an MIC (Pseudomonas aeruginosa; [3]) of 128 µg/mL (≈ 350 µM). It also gave an MIC (Morganella morg.; [8]) of 0.13 µg/mL (≈ 0.356 µM), an MIC (E. coli; E. coli strain 455/7) of 128 µg/mL (≈ 350 µM) and an MIC (E. coli; E. coli strain Neumann) of 0.13 µg/mL (≈ 0.356 µM). For the same compound, the MIC (Enterococcus faecalis; [4]) was 0.25 µg/mL (≈ 0.684 µM), the MIC (Enterococcus faecalis; [9]) was 0.25 µg/mL (≈ 0.684 µM) and the MIC (Providencia spp.; [10]) was 0.5 µg/mL (≈ 1.37 µM). For the same compound, the MIC (Klebsiella sp.; Klebsiella, 20 h) was 1 µg/mL (≈ 2.74 µM).
Work on `O=C(O)c1cn(C2CC2)c2nc(N3Cc4ccncc4C3)c(F)cc2c1=O` [Example 6, 1-cyclopropyl-7-(2,3-dihydro-1H-pyrrolo[3,4-c]pyridin-2-yl]-6-fluoro-1,4-dihydro-4-oxo-1,8-naphthyridine-3-carboxylic acid] yielded an MIC (Staphylococcus aureus; [1]) of 0.25 µg/mL (≈ 0.682 µM), an MIC (Staphylococcus aureus; [2]) of 0.25 µg/mL (≈ 0.682 µM) and an MIC (Pseudomonas aeruginosa; [3]) of 16 µg/mL (≈ 43.7 µM). It also gave an MIC (Morganella morg.; [8]) of 0.25 µg/mL (≈ 0.682 µM), an MIC (E. coli; E. coli strain 455/7) of 128 µg/mL (≈ 349 µM) and an MIC (E. coli; E. coli strain Neumann) of 0.13 µg/mL (≈ 0.355 µM). It also gave an MIC (Enterococcus faecalis; Enterococcus faecalis, 20 h) of 0.5 µg/mL (≈ 1.36 µM), an MIC (Enterococcus faecalis; [7]) of 0.5 µg/mL (≈ 1.36 µM) and an MIC (Providencia spp.; [10]) of 1 µg/mL (≈ 2.73 µM). For the same compound, the MIC (Klebsiella sp.; Klebsiella, 20 h) was 0.5 µg/mL (≈ 1.36 µM).
With `CN1CCC2=C(C1)CN(c1c(F)cc3c(=O)c(C(=O)O)cn(C4CC4)c3c1F)C2.Cl` [Example 7B, 1-cyclopropyl-6,8-difluoro-1,4-dihydro-7-(5-methyl-2,3,4,5,6,7-hexahydro-1H-pyrrolo[3,4-c]-pyridin-2-yl)-4-oxo-3-quinolinecarboxylic acid hydrochloride] the MIC (Staphylococcus aureus; [1]) was 0.06 µg/mL, the MIC (Staphylococcus aureus; [2]) was 0.06 µg/mL and the MIC (Pseudomonas aeruginosa; Pseudomonas aeruginosa, 20 h) was 1 µg/mL. For the same compound, the MIC (Morganella morg.; [8]) was 0.03 µg/mL, the MIC (E. coli; E. coli strain 455/7) was 2 µg/mL and the MIC (E. coli; E. coli strain Neumann) was 0.02 µg/mL. The MIC (Klebsiella sp.; [11]) was 0.06 µg/mL.
Work on `CN1CCC2=C(C1)CN(c1c(F)cc3c(=O)c(C(=O)O)cn(C4CC4)c3c1Cl)C2` [Example 8, 8-chloro-1-cyclopropyl-6-fluoro-1,4-dihydro-7-(5-methyl-2,3,4,5,6,7-hexahydro-1H-pyrrolo[3,4-c]pyridin-2-yl)-4-oxo-3-quinolinecarboxylic acid] yielded an MIC (Staphylococcus aureus; [1]) of 0.03 µg/mL (≈ 0.0718 µM), an MIC (Staphylococcus aureus; [2]) of 0.03 µg/mL (≈ 0.0718 µM) and an MIC (Pseudomonas aeruginosa; Pseudomonas aeruginosa, 20 h) of 0.5 µg/mL (≈ 1.2 µM). It also gave an MIC (Morganella morg.; [8]) of 0.06 µg/mL (≈ 0.144 µM), an MIC (E. coli; E. coli strain 455/7) of 1 µg/mL (≈ 2.39 µM) and an MIC (E. coli; E. coli strain Neumann) of 0.03 µg/mL (≈ 0.0718 µM). The MIC (Enterococcus faecalis; [4]) was 0.06 µg/mL (≈ 0.144 µM), the MIC (Enterococcus faecalis; [9]) was 0.06 µg/mL (≈ 0.144 µM) and the MIC (Providencia spp.; [10]) was 0.13 µg/mL (≈ 0.311 µM). It also gave an MIC (Klebsiella sp.; [11]) of 0.06 µg/mL (≈ 0.144 µM).
`Cc1c(F)c(N2CC3=C(CN(C)CC3)C2)cc2c1c(=O)c(C(=O)O)cn2-c1ccc(F)cc1F` [Example 9, 1-(2,4-difluorophenyl)-6-fluoro-1,4-dihydro-5-methyl-7-(5-methyl-2,3,4,5,6,7-hexahydro-1H-pyrrolo[3,4-c]-pyridin-2-yl)-4-oxo-3-quinolinecarboxylic acid] gave an MIC (Staphylococcus aureus; [1]) of 0.06 µg/mL (≈ 0.128 µM), an MIC (Staphylococcus aureus; [2]) of 0.06 µg/mL (≈ 0.128 µM) and an MIC (Pseudomonas aeruginosa; [3]) of 128 µg/mL (≈ 273 µM). It also gave an MIC (Morganella morg.; Morganella, 20 h) of 0.5 µg/mL (≈ 1.07 µM), an MIC (E. coli; E. coli strain 455/7) of 128 µg/mL (≈ 273 µM) and an MIC (E. coli; E. coli strain Neumann) of 0.25 µg/mL (≈ 0.533 µM). For the same compound, the MIC (Enterococcus faecalis; Enterococcus faecalis, 20 h) was 0.5 µg/mL (≈ 1.07 µM), the MIC (Enterococcus faecalis; [7]) was 0.5 µg/mL (≈ 1.07 µM) and the MIC (Providencia spp.; Providencia, 20 h) was 0.5 µg/mL (≈ 1.07 µM). It also gave an MIC (Klebsiella sp.; Klebsiella, 20 h) of 0.5 µg/mL (≈ 1.07 µM).
`Nc1cccc2c1CN(c1c(F)cc3c(=O)c(C(=O)O)cn(C4CC4)c3c1F)C2` [Ref., 7-(4-amino-1,3-dihydro-isoindol-2-yl)-1-cyclopropyl-6,8-difluoro-1,4-dihydro-4-oxo-3-quinolinecarboxylic acid, reference compound] was tested, and the MIC (Staphylococcus aureus; [1]) was 0.03 µg/mL (≈ 0.0755 µM), the MIC (Staphylococcus aureus; [2]) was 0.03 µg/mL (≈ 0.0755 µM) and the MIC (Pseudomonas aeruginosa; [3]) was 128 µg/mL (≈ 322 µM). The MIC (Morganella morg.; Morganella, 20 h) was 1 µg/mL (≈ 2.52 µM), the MIC (E. coli; E. coli strain 455/7) was 128 µg/mL (≈ 322 µM) and the MIC (E. coli; E. coli strain Neumann) was 0.5 µg/mL (≈ 1.26 µM). For the same compound, the MIC (Enterococcus faecalis; [7]) was 1 µg/mL (≈ 2.52 µM), the MIC (Enterococcus faecalis; [6]) was 0.5 µg/mL (≈ 1.26 µM) and the MIC (Providencia spp.; Providencia, 20 h) was 1 µg/mL (≈ 2.52 µM). The MIC (Klebsiella sp.; [11]) was 4 µg/mL (≈ 10.1 µM).
